Assay results taken from patent publication US8524745B2 (Allergan, Inc., priority 2011, dated 2013).

These molecules were tested against T1, CCR2 (Homo sapiens, UniProt P41597) (assay: CCR2 calcium activity assay on FLIPR Tetra in HEK-Gqi5 cells stably expressing CCR2).
T1 construct: expressed in transfected cells
Assay type: cell-based
Protocol: HEK-Gqi5 cells stably expressing CCR2 were cultured in (DMEM high glucose, 10% FBS, 1% PSA, 400 μg/ml geneticin and 50 μg/ml hygromycin. Appropriate positive control chemokines (MCP-1, MIP1A or RANTES) was used as the positive control agonist for screening compound-induced calcium activity assayed on the FLIPR^Tetra. The drug plates were prepared in 384-well microplates using the EP3 and the MuItiPROBE robotic liquid handling systems. Compounds were synthesized and tested for CCR2 activity.

T1 sequence (P41597 whole entry, species assumed): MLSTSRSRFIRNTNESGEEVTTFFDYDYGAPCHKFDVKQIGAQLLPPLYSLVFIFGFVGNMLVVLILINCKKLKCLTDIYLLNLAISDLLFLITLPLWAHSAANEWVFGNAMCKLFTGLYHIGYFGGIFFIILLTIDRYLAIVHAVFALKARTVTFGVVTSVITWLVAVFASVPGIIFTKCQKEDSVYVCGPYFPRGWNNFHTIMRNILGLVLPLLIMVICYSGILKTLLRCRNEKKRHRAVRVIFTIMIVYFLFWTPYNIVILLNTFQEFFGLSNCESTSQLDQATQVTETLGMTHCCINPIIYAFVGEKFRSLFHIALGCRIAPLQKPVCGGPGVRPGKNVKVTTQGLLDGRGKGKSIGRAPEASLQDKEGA

Row | Compound | CCR2 % ANTAG [%] | IC50 [nM]
1 | CN(C)c1ccc(NS(=O)(=O)c2cccs2)c(NS(=O)(=O)c2ccc3c(c2)c(=O)sn3C)c1 | 35 | 551
2 | Cn1sc(=O)c2cc(S(=O)(=O)N[C@@H]3CCCC[C@H]3NS(=O)(=O)c3cccs3)ccc21 (relative stereo) [rel-1-methyl-3-oxo-N-{(1R,2R)-2-[(2-thienylsulfonyl)amino]cyclohexyl}-1,3-dihydro-2,1-benzisothiazole-5-sulfonamide] | 79 | 2370
3 | Cn1sc(=O)c2cc(S(=O)(=O)N[C@@H]3CCCC[C@@H]3NS(=O)(=O)c3cccs3)ccc21 (relative stereo) [rel-1-methyl-3-oxo-N-{(1R,2S)-2-[(2-thienylsulfonyl)amino]cyclohexyl}-1,3-dihydro-2,1-benzisothiazole-5-sulfonamide] | 65 | 2180
4 | Cn1sc(=O)c2cc(S(=O)(=O)N[C@@H]3CCCC[C@H]3NS(=O)(=O)c3ccc(Cl)c(C(F)(F)F)c3)ccc21 (relative stereo) [rel-N-[(1R,2R)-2-({[4-chloro-3-(trifluoromethyl)phenyl]sulfonyl}amino)cyclohexyl]-1-methyl-3-oxo-1,3-dihydro-2,1-benzisothiazole-5-sulfonamide] | 96 | 543
5 | Cn1sc(=O)c2cc(S(=O)(=O)N[C@@H]3CCCC[C@H]3NC(=O)c3cccs3)ccc21 (relative stereo) [rel-N-[(1R,2R)-2-{[(1-methyl-3-oxo-1,3-dihydro-2,1-benzisothiazol-5-yl)sulfonyl]amino}cyclohexyl]thiophene-2-carboxamide] | 46 | –
6 | Cn1sc(=O)c2cc(S(=O)(=O)N[C@@H]3CCCC[C@@H]3NS(=O)(=O)c3ccc(Cl)c(C(F)(F)F)c3)ccc21 (relative stereo) [rel-N-[(1R,2S)-2-({[4-chloro-3-(trifluoromethyl)phenyl]sulfonyl}amino)cyclohexyl]-1-methyl-3-oxo-1,3-dihydro-2,1-benzisothiazole-5-sulfonamide] | 93 | 1240
7 | CC(C)n1sc(=O)c2cc(S(=O)(=O)Nc3cccc4c3OC(F)(F)C(F)(F)O4)ccc21 [1-isopropyl-3-oxo-N-(2,2,3,3-tetrafluoro-2,3-dihydro-1,4-benzodioxin-5-yl)-1,3-dihydro-2,1-benzisothiazole-5-sulfonamide] | 68 | 559
8 | CC(C)n1sc(=O)c2cc(S(=O)(=O)Nc3ccccc3NS(=O)(=O)c3cccs3)ccc21 [1-isopropyl-3-oxo-N-{2-[(2-thienylsulfonyl)amino]phenyl}-1,3-dihydro-2,1-benzisothiazole-5-sulfonamide] | 90 | 4320
9 | Cn1sc(=O)c2cc(S(=O)(=O)Nc3cc(Cl)c(Cl)cc3Cl)ccc21 [1-methyl-3-oxo-N-(2,4,5-trichlorophenyl)-1,3-dihydro-2,1-benzisothiazole-5-sulfonamide] | 79 | 1660
10 | Cn1sc(=O)c2cc(S(=O)(=O)Nc3ccccc3NC(=O)Nc3cccs3)ccc21 [1-methyl-3-oxo-N-(2-{[(2-thienylamino)carbonyl]amino}phenyl)-1,3-dihydro-2,1-benzisothiazole-5-sulfonamide] | 58 | 2530
11 | Cn1sc(=O)c2cc(S(=O)(=O)Nc3ccccc3CNS(=O)(=O)c3cccs3)ccc21 [1-methyl-3-oxo-N-(2-{[(2-thienylsulfonyl)amino]methyl}phenyl)-1,3-dihydro-2,1-benzisothiazole-5-sulfonamide] | 61 | –
12 | Cn1sc(=O)c2cc(S(=O)(=O)NC3CCCN(S(=O)(=O)c4cccs4)C3)ccc21 (centres unmarked) [1-methyl-3-oxo-N-[1-(2-thienylsulfonyl)piperidin-3-yl]-1,3-dihydro-2,1-benzisothiazole-5-sulfonamide] | 39 | –
13 | Cn1sc(=O)c2cc(S(=O)(=O)NC3CCN(S(=O)(=O)c4cccs4)C3)ccc21 (centres unmarked) [1-methyl-3-oxo-N-[1-(2-thienylsulfonyl)pyrrolidin-3-yl]-1,3-dihydro-2,1-benzisothiazole-5-sulfonamide] | 22 | –
14 | Cn1sc(=O)c2cc(S(=O)(=O)Nc3ccccc3NS(=O)(=O)c3cccc(C(F)(F)F)c3)ccc21 [1-methyl-3-oxo-N-[2-({[3-(trifluoromethyl)phenyl]sulfonyl}amino)phenyl]-1,3-dihydro-2,1-benzisothiazole-5-sulfonamide] | 94 | 2210
15 | Cn1sc(=O)c2cc(S(=O)(=O)Nc3ccccc3NS(=O)(=O)c3ccc(C(F)(F)F)cc3)ccc21 [1-methyl-3-oxo-N-[2-({[4-(trifluoromethyl)phenyl]sulfonyl}amino)phenyl]-1,3-dihydro-2,1-benzisothiazole-5-sulfonamide] | 24 | 606
16 | Cn1sc(=O)c2cc(S(=O)(=O)Nc3cccc(OC(F)(F)F)c3)ccc21 [1-methyl-3-oxo-N-[3-(trifluoromethoxy)phenyl]-1,3-dihydro-2,1-benzisothiazole-5-sulfonamide] | 92 | 920
17 | Cn1sc(=O)c2cc(S(=O)(=O)Nc3cccc(C(F)(F)F)c3)ccc21 [1-methyl-3-oxo-N-[3-(trifluoromethyl)phenyl]-1,3-dihydro-2,1-benzisothiazole-5-sulfonamide] | 84 | –
18 | Cn1sc(=O)c2cc(S(=O)(=O)Nc3cc(C(F)(F)F)ccc3NS(=O)(=O)c3cccs3)ccc21 [1-methyl-3-oxo-N-{2-[(2-thienylsulfonyl)amino]-5-(trifluoromethyl)phenyl}-1,3-dihydro-2,1-benzisothiazole-5-sulfonamide] | 103 | 701
19 | Cn1sc(=O)c2cc(S(=O)(=O)NCc3ccccc3NS(=O)(=O)c3cccs3)ccc21 [1-methyl-3-oxo-N-{2-[(2-thienylsulfonyl)amino]benzyl}-1,3-dihydro-2,1-benzisothiazole-5-sulfonamide] | 56 | 2180
20 | Cn1sc(=O)c2cc(S(=O)(=O)Nc3cccnc3NS(=O)(=O)c3cccs3)ccc21 [1-methyl-3-oxo-N-{2-[(2-thienylsulfonyl)amino]pyridin-3-yl}-1,3-dihydro-2,1-benzisothiazole-5-sulfonamide] | 83 | 1910
21 | Cn1sc(=O)c2cc(S(=O)(=O)Nc3ccccc3NS(=O)(=O)c3nnc[nH]3)ccc21 [1-methyl-3-oxo-N-{2-[(4H-1,2,4-triazol-3-ylsulfonyl)amino]phenyl}-1,3-dihydro-2,1-benzisothiazole-5-sulfonamide] | 90 | 1100
22 | Cn1sc(=O)c2cc(S(=O)(=O)Nc3ccccc3NS(=O)(=O)c3ccccc3)ccc21 [1-methyl-3-oxo-N-{2-[(phenylsulfonyl)amino]phenyl}-1,3-dihydro-2,1-benzisothiazole-5-sulfonamide] | 97 | 887
23 | Cn1sc(=O)c2cc(S(=O)(=O)Nc3ccccc3NS(=O)(=O)c3cccnc3)ccc21 [1-methyl-3-oxo-N-{2-[(pyridin-3-ylsulfonyl)amino]phenyl}-1,3-dihydro-2,1-benzisothiazole-5-sulfonamide] | 77 | –
24 | Cn1sc(=O)c2cc(S(=O)(=O)Nc3cc4ccccc4cc3NS(=O)(=O)c3cccs3)ccc21 [1-methyl-3-oxo-N-{3-[(2-thienylsulfonyl)amino]-2-naphthyl}-1,3-dihydro-2,1-benzisothiazole-5-sulfonamide] | 96 | 2180
25 | Cn1sc(=O)c2cc(S(=O)(=O)Nc3cccc(NS(=O)(=O)c4cccs4)c3)ccc21 [1-methyl-3-oxo-N-{3-[(2-thienylsulfonyl)amino]phenyl}-1,3-dihydro-2,1-benzisothiazole-5-sulfonamide] | 23 | 2870
26 | Cn1sc(=O)c2cc(S(=O)(=O)Nc3cccc(SC(F)(F)F)c3)ccc21 [1-methyl-3-oxo-N-{3-[(trifluoromethyl)thio]phenyl}-1,3-dihydro-2,1-benzisothiazole-5-sulfonamide] | 85 | –
27 | Cn1sc(=O)c2cc(S(=O)(=O)N3CCN(S(=O)(=O)c4cccs4)c4ccccc43)ccc21 [1-methyl-5-{[4-(2-thienylsulfonyl)-3,4-dihydroquinoxalin-1(2H)-yl]sulfonyl}-2,1-benzisothiazol-3(1H)-one] | 65 | 2080
28 | Cn1cnc(S(=O)(=O)Nc2ccccc2NS(=O)(=O)c2ccc3c(c2)c(=O)sn3C)c1 [1-methyl-N-(2-{[(1-methyl-1H-imidazol-4-yl)sulfonyl]amino}phenyl)-3-oxo-1,3-dihydro-2,1-benzisothiazole-5-sulfonamide] | 99 | 963
29 | Cn1ccc(S(=O)(=O)Nc2ccccc2NS(=O)(=O)c2ccc3c(c2)c(=O)sn3C)n1 [1-methyl-N-(2-{[(1-methyl-1H-pyrazol-3-yl)sulfonyl]amino}phenyl)-3-oxo-1,3-dihydro-2,1-benzisothiazole-5-sulfonamide] | 53 | 1680
30 | Cn1cc(S(=O)(=O)Nc2ccccc2NS(=O)(=O)c2ccc3c(c2)c(=O)sn3C)cn1 [1-methyl-N-(2-{[(1-methyl-1H-pyrazol-4-yl)sulfonyl]amino}phenyl)-3-oxo-1,3-dihydro-2,1-benzisothiazole-5-sulfonamide] | 60 | 2480
